Values quoted from earlier work as cited in US10898467B2, “Veterinary formulations” (BOEHRINGER INGELHEIM ANIMAL HEALTH USA INC., priority 2015, dated 2021).

Details: beagle dogs, spot-on, 14C radiolabeled drug

In the case of `N#Cc1nn(-c2c(Cl)cc(C(F)(F)F)cc2Cl)c(N)c1[S+]([O-])C(F)(F)F` (stereo not shown) [fipronil, 1-(2,6-Cl2-4-CF3phenyl)-3-CN-4-(SO—CF3)-5-NH2pyrazole], the “Time for which fipronil was persistently detected in the whole skin after treatment” value is listed as “up to 56 days”.
